Source: the NIST ThermoML archive (doi:10.1021/acs.jced.8b01247)
± gives the expanded uncertainty stated by the source.

Experiments:
[1] = Boiling temperature at pressure P; conditions: Liquid, Ebulliometric method (Recirculating still)
[2] = 337.83 K; Liquid; Ebulliometric method (Recirculating still)

| SMILES | Boiling temperature at pressure P ([1]; 101.3 kPa) | Boiling temperature at pressure P ([1]; 166.8 kPa) | Boiling temperature at pressure P ([1]; 217.3 kPa) | Boiling temperature at pressure P ([1]; 257 kPa) | Boiling temperature at pressure P ([1]; 313.1 kPa) | Boiling temperature at pressure P ([1]; 387.5 kPa) | vapor or sublimation pressure [2] |
| --- | --- | --- | --- | --- | --- | --- | --- |
| CCC(C)OCOC (configuration not stated) [2-(methoxymethoxy)butane] | 109.7 ± 0.87 °C | 129.1 ± 1.3 °C | 139.94 ± 1.2 °C | 146.93 ± 1.2 °C | 155.67 ± 1.3 °C | 165.49 ± 1.5 °C |  |
| CO [methanol] |  |  |  |  |  |  | 101.3 ± 2.3 kPa |
